In US7754747B2, “Oxazolo-naphthyl acids” (Wyeth LLC, priority 2004, dated 2010):

Experiments:
[1] = biological target: T1, recombinant human plasminogen activator inhibitor-1 (PAI-1) (Homo sapiens, UniProt P05121); test: Primary Screen for the PAI-1 Inhibition (residual tPA activity, Spectrozyme-tPA chromogenic substrate); assay type: biochemical; conditions: pH 6.6 buffer; for inhibition at 10 µM: 10 μM test compound; for inhibition at 25 µM: 25 μM test compound
T1 construct: purchased Molecular Innovations, Royal Oak, Mich
T1 sequence (P05121 24-402): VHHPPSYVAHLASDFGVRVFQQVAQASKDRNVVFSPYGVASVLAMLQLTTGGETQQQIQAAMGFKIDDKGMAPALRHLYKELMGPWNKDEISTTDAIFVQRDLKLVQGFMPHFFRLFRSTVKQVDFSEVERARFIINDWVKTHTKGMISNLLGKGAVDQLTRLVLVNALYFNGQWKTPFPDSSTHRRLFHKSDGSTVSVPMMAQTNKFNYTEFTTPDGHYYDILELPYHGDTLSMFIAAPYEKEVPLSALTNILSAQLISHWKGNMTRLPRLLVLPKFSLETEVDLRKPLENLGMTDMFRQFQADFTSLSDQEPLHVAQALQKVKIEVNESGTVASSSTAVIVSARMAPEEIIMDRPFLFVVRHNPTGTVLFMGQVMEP
Experimental: Test compounds are dissolved in DMSO at a final concentration of 10 mM, then diluted 100×in physiologic buffer. The inhibitory assay is initiated by the addition of the test compound (1-100 μM final concentration, maximun DMSO concentration of 0.2%) in a pH 6.6 buffer containing 140 Mn recombinant human plasminogen activator inhibitor-1 (PAI-1; Molecular Innovations, Royal Oak, Mich.). Following a 1 hour incubation at room temperature, 70 Mn of recombinant human tissue plasminogen activator (tPA) is added, and the combination of the test compound, PAI-1 and tPA is incubated for an additional 30 minutes. Following the second incubation, Spectrozyme-tPA (American Diagnostica, Greenwich, Conn.), a chromogenic substrate for tPA, is added and absorbance read at 405 nm at 0 and 60 minutes. Relative PAI-1 inhibition is equal to the residual tPA activity in the presence of the test compound and PAI-1. Control treatments include the complete inhibition of tPA by PAI-1 at the molar ratio employed (2:1), and the absence of any effect of the test compound on tPA alone.

human PAI-1 = human PAI-1 (Homo sapiens, UniProt P05121); test: Assay for determining IC50 of inhibition of PAI-1 (Antibody Assay, active PAI-1 bound to tPA-coated plate); assay type: binding; conditions: pH 7.5 buffer, human PAI-1 50 ng/ml
human PAI-1, sequence (P05121 24-402): as above
Experimental: This assay is based upon the non-SDS dissociable interaction between tPA and active PAI-1. Assay plates are initially coated with human tPA (10 μg/ml). Test compounds of the present invention are dissolved in DMSO at 10 mM, then diluted with physiologic buffer (pH 7.5) to a final concentration of 1-50 μM. Test compounds are incubated with human PAI-1 (50 ng/ml) for 15 minutes at room temperature. The tPA-coated plate is washed with a solution of 0.05% Tween 20 and 0.1% BSA, then the plate is blocked with a solution of 3% BSA. An aliquot of the oxazolo-naphthyl acid/PAI-1 solution is then added to the tPA-coated plate, incubated at room temperature for 1 hour, and washed. Active PAI-1 bound to the plate is assessed by adding an aliquot of a 1:1000 dilution of the 33B8 monoclonal antibody against human PAI-1, and incubating the plate at room temperature for 1 hour (Molecular Innovations, Royal Oak, Mich.). The plate is again washed, and a solution of goat anti-mouse IgG-alkaline phosphatase conjugate is added at a 1:50,000 dilution in goat serum. The plate is incubated 30 minutes at room temperature, washed, and a solution of alkaline phosphatase substrate is added. The plate is incubated 45 minutes at room temperature, and color development is determined at OD405nm. The quantitation of active PAI-1 bound to tPA at varying concentrations of the test compound is used to determine the IC50. Results are analyzed using a logarithmic best-fit equation. The assay sensitivity is 5 ng/ml of human PAI-1 as determined from a standard curve ranging from 0-100 ng/ml.

c1ccc(-c2ncc(-c3ccc4cc(OCc5nnn[nH]5)ccc4c3)o2)cc1 [Example 1, 5-({[6-(2-phenyl-1,3-oxazol-5-yl)-2-naphthyl]oxy}methyl)-1H-tetraazole]
inhibition at 10 µM [1]: 17%
inhibition at 25 µM [1]: 65%
IC50 (human PAI-1): 68.4 µM
melting point: 239 to 241 °C

CCCCc1oc2ccccc2c1-c1ncc(-c2ccc3cc(OCc4nnn[nH]4)ccc3c2)o1 [Example 2, 5-[({6-[2-(2-butyl-1-benzofuran-3-yl)-1,3-oxazol-5-yl]-2-naphthyl}oxy)methyl]-1H-tetraazole]
inhibition at 10 µM [1]: 12%
inhibition at 25 µM [1]: 52%
IC50 (human PAI-1): 19.4 µM
melting point: 238 to 240 °C

CCCCc1oc2ccccc2c1-c1ncc(-c2ccc3cc(OC(Cc4ccccc4)C(=O)O)ccc3c2)o1 (centres unmarked) [Example 3, 2-({6-[2-(2-butyl-1-benzofuran-3-yl)-1,3-oxazol-5-yl]-2-naphthyl}oxy)-3-phenylpropanoic acid]
inhibition at 10 µM [1]: 32%
inhibition at 25 µM [1]: 66%
IC50 (human PAI-1): 26.6 µM
melting point: 174 to 177 °C

CCCCc1oc2ccccc2c1-c1ncc(-c2ccc3cc(OCC(=O)O)ccc3c2)o1 [Example 4, ({6-[2-(2-butyl-1-benzofuran-3-yl)-1,3-oxazol-5-yl]-2-naphthyl}oxy)acetic acid]
inhibition at 10 µM [1]: 23%
inhibition at 25 µM [1]: 46%
IC50 (human PAI-1): 22.7 µM
melting point: 214 to 216 °C

O=C(O)C(Cc1ccccc1)Oc1ccc2cc(-c3cnc(-c4cn(Cc5ccccc5)c5ccccc45)o3)ccc2c1 (centres unmarked) [Example 5, 2-({6-[2-(1-benzyl-1H-indol-3-yl)-1,3-oxazol-5-yl]-2-naphthyl}oxy)-3-phenylpropanoic acid]
inhibition at 10 µM [1]: 1%
inhibition at 25 µM [1]: 34%
IC50 (human PAI-1): 47.4 µM
melting point: 125 to 127 °C

O=C(O)COc1ccc2cc(-c3cnc(-c4cn(Cc5ccccc5)c5ccccc45)o3)ccc2c1 [Example 6, ({6-[2-(1-benzyl-1H-indol-3-yl)-1,3-oxazol-5-yl]-2-naphthyl}oxy)acetic acid]
inhibition at 10 µM [1]: 4%
inhibition at 25 µM [1]: 28%
melting point: 238 to 242 °C

c1ccc(Cn2cc(-c3ncc(-c4ccc5cc(OCc6nnn[nH]6)ccc5c4)o3)c3ccccc32)cc1 [Example 7, 1-benzyl-3-{5-[6-(1H-tetrazol-5-ylmethoxy)-2-naphthyl]-1,3-oxazol-2-yl}-1H-indole]
inhibition at 10 µM [1]: 19%
inhibition at 25 µM [1]: 61%
melting point: 244 to 246 °C

Cn1cc(-c2ncc(-c3ccc4cc(OC(Cc5ccccc5)C(=O)O)ccc4c3)o2)c2ccccc21 (centres unmarked) [Example 8, 2-({6-[2-(1-methyl-1H-indol-3-yl)-1,3-oxazol-5-yl]-2-naphthyl}oxy)-3-phenylpropanoic acid]
inhibition at 10 µM [1]: 2%
inhibition at 25 µM [1]: 75%
melting point: 149 to 151 °C

Cn1cc(-c2ncc(-c3ccc4cc(OCC(=O)O)ccc4c3)o2)c2ccccc21 [Example 9, ({6-[2-(1-Methyl-1H-indol-3-yl)-1,3-oxazol-5-yl]-2-naphthyl}oxy)acetic acid]
inhibition at 10 µM [1]: 3%
inhibition at 25 µM [1]: 24%
melting point: 269 to 272 °C

Cn1cc(-c2ncc(-c3ccc4cc(OCc5nnn[nH]5)ccc4c3)o2)c2ccccc21 [Example 10, 1-methyl-3-{5-[6-(1H-tetrazol-5-ylmethoxy)-2-naphthyl]-1,3-oxazol-2-yl}-1H-indole]
inhibition at 10 µM [1]: 16%
inhibition at 25 µM [1]: 35%
melting point: 254 to 256 °C

O=C(O)C(Cc1ccccc1)Oc1ccc2cc(-c3cnc(Cc4ccccc4)o3)ccc2c1 (centres unmarked) [Example 11, 2-{[6-(2-benzyl-1,3-oxazol-5-yl)-2-naphthyl]oxy}-3-phenylpropanoic acid]
inhibition at 10 µM [1]: 18%
inhibition at 25 µM [1]: 31%
melting point: 78 to 82 °C

O=C(O)COc1ccc2cc(-c3cnc(Cc4ccccc4)o3)ccc2c1 [Example 12, {[6-(2-benzyl-1,3-oxazol-5-yl)-2-naphthyl]oxy}acetic acid]
inhibition at 10 µM [1]: 0%
inhibition at 25 µM [1]: 26%
melting point: 236 to 238 °C

c1ccc(Cc2ncc(-c3ccc4cc(OCc5nnn[nH]5)ccc4c3)o2)cc1 [Example 13, 5-({[6-(2-benzyl-1,3-oxazol-5-yl)-2-naphthyl]oxy}methyl)-1H-tetraazole]
inhibition at 10 µM [1]: 11%
inhibition at 25 µM [1]: 23%
melting point: 227 to 228 °C

O=C(O)COc1ccc2cc(-c3cnc(Cc4ccc5ccccc5c4)o3)ccc2c1 [Example 14, ({6-[2-(2-naphthylmethyl)-1,3-oxazol-5-yl]-2-naphthyl}oxy)acetic acid]
inhibition at 10 µM [1]: 12%
inhibition at 25 µM [1]: 17%
melting point: 258 to 260 °C

c1ccc2cc(Cc3ncc(-c4ccc5cc(OCc6nnn[nH]6)ccc5c4)o3)ccc2c1 [Example 15, 5-[({6-[2-(2-naphthylmethyl)-1,3-oxazol-5-yl]-2-naphthyl}oxy)methyl]-1H-tetrazole]
inhibition at 10 µM [1]: 22%
inhibition at 25 µM [1]: 48%
melting point: 179 to 182 °C

CCCCc1oc2ccccc2c1-c1ncc(-c2ccc3c(Br)c(OCc4nnn[nH]4)ccc3c2)o1 [Example 16, 5-[({1-bromo-6-[2-(2-butyl-1-benzofuran-3-yl)-1,3-oxazol-5-yl]-2-naphthyl}oxy)methyl]-1H-tetrazole]
inhibition at 10 µM [1]: 11%
inhibition at 25 µM [1]: 16%
melting point: 235 to 237 °C

CCCCc1oc2ccccc2c1-c1ncc(-c2ccc3cc(OCc4ccc(C(=O)O)cc4)ccc3c2)o1 [Example 17, 4-[({6-[2-(2-butyl-1-benzofuran-3-yl)-1,3-oxazol-5-yl]-2-naphthyl}oxy)methyl]benzoic acid]
inhibition at 10 µM [1]: 14%
inhibition at 25 µM [1]: 20%
melting point: 251 to 254 °C

CCCCc1oc2ccccc2c1-c1ncc(-c2ccc3cc(OCc4ccc(C(=O)O)cc4C(=O)O)ccc3c2)o1 [Example 18, 4-[({6-[2-(2-butyl-1-benzofuran-3-yl)-1,3-oxazol-5-yl]-2-naphthyl}oxy)methyl]isophthalic acid]
inhibition at 10 µM [1]: 33%
inhibition at 25 µM [1]: 62%
melting point: 285 to 287 °C

CCCCc1oc2ccccc2c1-c1ncc(-c2ccc3c(Br)c(OCc4ccc(C(=O)O)cc4)ccc3c2)o1 [Example 19, 4-[({1-bromo-6-[2-(2-butyl-1-benzofuran-3-yl)-1,3-oxazol-5-yl]-2-naphthyl}oxy)methyl]benzoic acid]
inhibition at 10 µM [1]: 12%
inhibition at 25 µM [1]: 23%
melting point: 281 to 283 °C
